The values below come from patent US4122179A, “Acid addition salts of vincamine and apovincamine” (priority 1976, dated 1978).

A word on the LD50: it is the dose at which mortality reaches 50%. Higher therefore signals a less toxic substance.

Test system in one data set: not listed separately
Description: Solubility. Format: physicochemical. The following applies: alcohol (ethyl alcohol); qualitative.
Turning to `CC[C@]12CCCN3CCc4c(n(c5ccccc45)[C@@](O)(C(=O)OC)C1)[C@@H]32` [Example 28.a, Vincamine salicylate], the solubility in alcohol result was “soluble”.
For `CC[C@]12CCCN3CCc4c(n(c5ccccc45)[C@@](O)(C(=O)OC)C1)[C@@H]32` [Example 25.a, Vincamine (D,L)-mandelate], the solubility in alcohol entry was “soluble”.
Turning to `CC[C@@]12C=C(C(=O)OC)n3c4c(c5ccccc53)CCN(CCC1)[C@H]42` [Example 21.b, Apovincamine caproate], the solubility in alcohol result was “insoluble”.
The same measure, in the same setting: for `CC[C@]12CCCN3CCc4c(n(c5ccccc45)[C@@](O)(C(=O)OC)C1)[C@@H]32` [Example 13.a, Vincamine D(+)-camphorsulfonate] the value was “poorly soluble”.
The same measure, in the same setting: for `CC[C@]12CCCN3CCc4c(n(c5ccccc45)[C@@](O)(C(=O)OC)C1)[C@@H]32` [Example 5.a, Vincamine 2,6-dihydroxybenzoate] the value was “insoluble”.
As for `CC[C@]12CCCN3CCc4c(n(c5ccccc45)[C@@](O)(C(=O)OC)C1)[C@@H]32` [Example 19.a, Vincamine p-chlorophenoxyacetate], the solubility in alcohol entry is given as “soluble”.
On the same count and under the same terms, in the case of `CC[C@@]12C=C(C(=O)OC)n3c4c(c5ccccc53)CCN(CCC1)[C@H]42` [Example 14.b, Apovincamine L(+)-O,O-dibenzoyltartrate] it was “soluble”; in that of `CC[C@]12CCCN3CCc4c(n(c5ccccc45)[C@@](O)(C(=O)OC)C1)[C@@H]32` [Example 11.a, Vincamine 4-acetamidobutyrate], “insoluble”.
In the case of `CC[C@@]12C=C(C(=O)OC)n3c4c(c5ccccc53)CCN(CCC1)[C@H]42` [Example 11.b, Apovincamine 4-acetamidobutyrate], the solubility in alcohol entry was “insoluble”.

Still in this data set, the particulars now being: common organic solvents; qualitative.
`CC[C@]12CCCN3CCc4c(n(c5ccccc45)[C@@](O)(C(=O)OC)C1)[C@@H]32` [Example 28.a, Vincamine salicylate]: the “solubility in the common (organic) solvents” value is given as “insoluble”.
Consider `CC[C@]12CCCN3CCc4c(n(c5ccccc45)[C@@](O)(C(=O)OC)C1)[C@@H]32` [Example 25.a, Vincamine (D,L)-mandelate], for which the “solubility in the common (organic) solvents” value was “insoluble”.
On the same count and under the same terms, for `CC[C@]12CCCN3CCc4c(n(c5ccccc45)[C@@](O)(C(=O)OC)C1)[C@@H]32` [Example 13.a, Vincamine D(+)-camphorsulfonate] the value was “insoluble”; for `CC[C@]12CCCN3CCc4c(n(c5ccccc45)[C@@](O)(C(=O)OC)C1)[C@@H]32` [Example 19.a, Vincamine p-chlorophenoxyacetate], “insoluble”.

Staying with this data set, now noted: water; qualitative.
Take `CC[C@]12CCCN3CCc4c(n(c5ccccc45)[C@@](O)(C(=O)OC)C1)[C@@H]32` [Example 28.a, Vincamine salicylate]: the solubility in water result is recorded as “insoluble”.
Still for that read-out and setting: in the case of `CC[C@]12CCCN3CCc4c(n(c5ccccc45)[C@@](O)(C(=O)OC)C1)[C@@H]32` [Example 25.a, Vincamine (D,L)-mandelate] it was “insoluble”; in that of `CC[C@@]12C=C(C(=O)OC)n3c4c(c5ccccc53)CCN(CCC1)[C@H]42` [Example 21.b, Apovincamine caproate], “insoluble”; in that of `CC[C@]12CCCN3CCc4c(n(c5ccccc45)[C@@](O)(C(=O)OC)C1)[C@@H]32` [Example 13.a, Vincamine D(+)-camphorsulfonate], “soluble”.
Same read-out and setting: for `CC[C@]12CCCN3CCc4c(n(c5ccccc45)[C@@](O)(C(=O)OC)C1)[C@@H]32` [Example 5.a, Vincamine 2,6-dihydroxybenzoate] the value was “insoluble”; for `CC[C@]12CCCN3CCc4c(n(c5ccccc45)[C@@](O)(C(=O)OC)C1)[C@@H]32` [Example 19.a, Vincamine p-chlorophenoxyacetate], “insoluble”; for `CC[C@]12CCCN3CCc4c(n(c5ccccc45)[C@@](O)(C(=O)OC)C1)[C@@H]32` [Example 11.a, Vincamine 4-acetamidobutyrate], “insoluble”.
`CC[C@@]12C=C(C(=O)OC)n3c4c(c5ccccc53)CCN(CCC1)[C@H]42` [Example 11.b, Apovincamine 4-acetamidobutyrate]: the solubility in water entry is listed as “insoluble”.

Another data set concerns vertebral arteria. The data set can be described thus: Cerebral vasodilating activity: hematic flow at the vertebral arteria after i.v. administration. Format: in vivo. The following applies: i.v. (femoral vein), 5 mg/kg of vincamine/apovincamine, anesthetized dog, 4 animals per compound; 5 mg/kg. As to the method:
(§1) For the compounds of the present invention a number of pharmacological and pharmacokinetic tests have been carried out. […] As regards the pharmacological and pharmacodynamic activity, it has been studied on the percent variations of the hematic flow, as recorded at the vertebral arteria in the dog after administration of the tested compounds. As regards the pharmacokinetic tests, the compounds were administered per oral route to the Wistar rat, and the hematic levels at different times from the administration were measured.
The cerebral vasodilating activity was studied in the anestetized dog, by measuring, by means of Statham periarterial electromagnetic flowmeters, the hematic flow at the level of the […] which, in such animal species, constitutes the greatest blood supply to the brain.
The resuls are reported in the TABLE 2 (last column) as the percent variations of the flow measured at the level of the ledt vertebral arteria after the i.v. administration of the several compounds to be tested to groups of 4 animals for each compound. The results also confirm that the compounds of the invention are all endowed with a vasodilating activity at the level of the cerebral circulus, such an action being, for some compounds, much more remarkable than that of vincamine and apovincamine.
As to `CC[C@]12CCCN3CCc4c(n(c5ccccc45)[C@@](O)(C(=O)OC)C1)[C@@H]32` [Example 28.a, Vincamine salicylate], the “% increase (percent variation of hematic flow, left vertebral arteria)” value is listed as 25.7%.
For the compound `CC[C@]12CCCN3CCc4c(n(c5ccccc45)[C@@](O)(C(=O)OC)C1)[C@@H]32` [Example 25.a, Vincamine (D,L)-mandelate], the “% increase (percent variation of hematic flow, left vertebral arteria)” value was found to be 39.4%.
Turning to `CC[C@@]12C=C(C(=O)OC)n3c4c(c5ccccc53)CCN(CCC1)[C@H]42` [Example 21.b, Apovincamine caproate], the “% increase (percent variation of hematic flow, left vertebral arteria)” value is given as 36.4%.
With `CC[C@]12CCCN3CCc4c(n(c5ccccc45)[C@@](O)(C(=O)OC)C1)[C@@H]32` [Example 13.a, Vincamine D(+)-camphorsulfonate], the “% increase (percent variation of hematic flow, left vertebral arteria)” value is recorded as 30.1%.
Still for that read-out and setting: in the case of `CC[C@]12CCCN3CCc4c(n(c5ccccc45)[C@@](O)(C(=O)OC)C1)[C@@H]32` [Example 5.a, Vincamine 2,6-dihydroxybenzoate] it was 23.6%; in that of `CC[C@]12CCCN3CCc4c(n(c5ccccc45)[C@@](O)(C(=O)OC)C1)[C@@H]32` [Example 19.a, Vincamine p-chlorophenoxyacetate], 22.0%; in that of `CC[C@@]12C=C(C(=O)OC)n3c4c(c5ccccc53)CCN(CCC1)[C@H]42` [Example 14.b, Apovincamine L(+)-O,O-dibenzoyltartrate], 31.0%.
Consider `CC[C@]12CCCN3CCc4c(n(c5ccccc45)[C@@](O)(C(=O)OC)C1)[C@@H]32` [Example 11.a, Vincamine 4-acetamidobutyrate], for which the “% increase (percent variation of hematic flow, left vertebral arteria)” value was 29.3%.
On the same count and under the same terms, for `CC[C@@]12C=C(C(=O)OC)n3c4c(c5ccccc53)CCN(CCC1)[C@H]42` [Example 11.b, Apovincamine 4-acetamidobutyrate] the value was 33.0%.

Test system in a further data set: not listed separately
The data set can be described thus: Hematic levels at different times after oral administration (absorption). Format: in vivo, Wistar rat. The conditions noted are these: 100 mg/kg expressed as vincamine/apovincamine, 5% carboxymethyl cellulose suspension, 100 mg/kg. As to the method:
as §1
For the evaluation of the absorption, all the compounds have been orally administered at the dosage of 100 mg/kg, expressed as vincamine and apovincamine, in form of a suspension in a 5% carboxymethyl cellulose solution.
The absorption was determined by evaulating the hematic levels at the following times (minutes) : 0, 30, 120, 240, 480, 10 hours and 12 hours, in order also to assess the time from the administration (max conc.time) the maximum absorption occurred.
The vincamine and apovincamine concentrations were assessed by chromatographic method.
For the evaluation of the prolonged action of the salts and of the adducts of vincamine and apovincamine the following criterium was adopted; as derivatives having a long-acting effect, there are considered those which, 120 minutes after the administration, show hematic levels higher than those obtained with vincamine and apovincamine.
Turning to `CC[C@]12CCCN3CCc4c(n(c5ccccc45)[C@@](O)(C(=O)OC)C1)[C@@H]32` [Example 28.a, Vincamine salicylate], the Max. conc. time turned out to be 240 min.
Same read-out and setting: for `CC[C@]12CCCN3CCc4c(n(c5ccccc45)[C@@](O)(C(=O)OC)C1)[C@@H]32` [Example 25.a, Vincamine (D,L)-mandelate] the value was 20 min; for `CC[C@@]12C=C(C(=O)OC)n3c4c(c5ccccc53)CCN(CCC1)[C@H]42` [Example 21.b, Apovincamine caproate], 60 min; for `CC[C@]12CCCN3CCc4c(n(c5ccccc45)[C@@](O)(C(=O)OC)C1)[C@@H]32` [Example 13.a, Vincamine D(+)-camphorsulfonate], 60 min.
The compound `CC[C@]12CCCN3CCc4c(n(c5ccccc45)[C@@](O)(C(=O)OC)C1)[C@@H]32` [Example 5.a, Vincamine 2,6-dihydroxybenzoate] displayed a Max. conc. time of 120 min.
`CC[C@]12CCCN3CCc4c(n(c5ccccc45)[C@@](O)(C(=O)OC)C1)[C@@H]32` [Example 19.a, Vincamine p-chlorophenoxyacetate] yielded a Max. conc. time of 480 min.
The compound `CC[C@@]12C=C(C(=O)OC)n3c4c(c5ccccc53)CCN(CCC1)[C@H]42` [Example 14.b, Apovincamine L(+)-O,O-dibenzoyltartrate] gave a Max. conc. time of 120 min.
Still for that read-out and setting: in the case of `CC[C@]12CCCN3CCc4c(n(c5ccccc45)[C@@](O)(C(=O)OC)C1)[C@@H]32` [Example 11.a, Vincamine 4-acetamidobutyrate] it was 480 min; in that of `CC[C@@]12C=C(C(=O)OC)n3c4c(c5ccccc53)CCN(CCC1)[C@H]42` [Example 11.b, Apovincamine 4-acetamidobutyrate], 480 min.

Test system in a further data set: not listed separately
Description: LD50 / acute toxicity, intraperitoneal route. Format: in vivo. The conditions noted are these: i.p.
The compound `CC[C@]12CCCN3CCc4c(n(c5ccccc45)[C@@](O)(C(=O)OC)C1)[C@@H]32` [Example 28.a, Vincamine salicylate] gave an LD50 of 700 mg/kg.
`CC[C@]12CCCN3CCc4c(n(c5ccccc45)[C@@](O)(C(=O)OC)C1)[C@@H]32` [Example 25.a, Vincamine (D,L)-mandelate] gave an LD50 of 900 mg/kg.
`CC[C@@]12C=C(C(=O)OC)n3c4c(c5ccccc53)CCN(CCC1)[C@H]42` [Example 21.b, Apovincamine caproate]: the LD50 was determined as 1900 mg/kg.
Still for that read-out and setting: in the case of `CC[C@]12CCCN3CCc4c(n(c5ccccc45)[C@@](O)(C(=O)OC)C1)[C@@H]32` [Example 13.a, Vincamine D(+)-camphorsulfonate] it was 1350 mg/kg; in that of `CC[C@]12CCCN3CCc4c(n(c5ccccc45)[C@@](O)(C(=O)OC)C1)[C@@H]32` [Example 5.a, Vincamine 2,6-dihydroxybenzoate], 550 mg/kg; in that of `CC[C@]12CCCN3CCc4c(n(c5ccccc45)[C@@](O)(C(=O)OC)C1)[C@@H]32` [Example 19.a, Vincamine p-chlorophenoxyacetate], 750 mg/kg.
In turn, `CC[C@@]12C=C(C(=O)OC)n3c4c(c5ccccc53)CCN(CCC1)[C@H]42` [Example 14.b, Apovincamine L(+)-O,O-dibenzoyltartrate] gave an LD50 of 1500 mg/kg. This LD50 lies about 2-fold higher than the previous one.
Still for that read-out and setting: for `CC[C@]12CCCN3CCc4c(n(c5ccccc45)[C@@](O)(C(=O)OC)C1)[C@@H]32` [Example 11.a, Vincamine 4-acetamidobutyrate] the value was 700 mg/kg; for `CC[C@@]12C=C(C(=O)OC)n3c4c(c5ccccc53)CCN(CCC1)[C@H]42` [Example 11.b, Apovincamine 4-acetamidobutyrate], 1500 mg/kg.

The same data set, now with this note: i.p.; Gleason class in words, classes not defined.
For `CC[C@]12CCCN3CCc4c(n(c5ccccc45)[C@@](O)(C(=O)OC)C1)[C@@H]32` [Example 28.a, Vincamine salicylate], the “Toxicity (Gleason)” value is on record as “modest”.
Same read-out and setting: for `CC[C@]12CCCN3CCc4c(n(c5ccccc45)[C@@](O)(C(=O)OC)C1)[C@@H]32` [Example 25.a, Vincamine (D,L)-mandelate] the value was “modest”; for `CC[C@@]12C=C(C(=O)OC)n3c4c(c5ccccc53)CCN(CCC1)[C@H]42` [Example 21.b, Apovincamine caproate], “light”.
Take `CC[C@]12CCCN3CCc4c(n(c5ccccc45)[C@@](O)(C(=O)OC)C1)[C@@H]32` [Example 13.a, Vincamine D(+)-camphorsulfonate]: the “Toxicity (Gleason)” value is given as “light”.
Consider `CC[C@]12CCCN3CCc4c(n(c5ccccc45)[C@@](O)(C(=O)OC)C1)[C@@H]32` [Example 5.a, Vincamine 2,6-dihydroxybenzoate], for which the “Toxicity (Gleason)” value was “modest”.
Still for that read-out and setting: in the case of `CC[C@]12CCCN3CCc4c(n(c5ccccc45)[C@@](O)(C(=O)OC)C1)[C@@H]32` [Example 19.a, Vincamine p-chlorophenoxyacetate] it was “modest”; in that of `CC[C@@]12C=C(C(=O)OC)n3c4c(c5ccccc53)CCN(CCC1)[C@H]42` [Example 14.b, Apovincamine L(+)-O,O-dibenzoyltartrate], “light”.
The same measure, in the same setting: for `CC[C@]12CCCN3CCc4c(n(c5ccccc45)[C@@](O)(C(=O)OC)C1)[C@@H]32` [Example 11.a, Vincamine 4-acetamidobutyrate] the value was “modest”.
Still for that read-out and setting: in the case of `CC[C@@]12C=C(C(=O)OC)n3c4c(c5ccccc53)CCN(CCC1)[C@H]42` [Example 11.b, Apovincamine 4-acetamidobutyrate] it was “light”.
